Paper PMC11532494 (Nature Communications, 2024)
Several values for one entry are separate records, joined by “and”; a condition that tells them apart may be missing. Identical values can stand only once. Like-named read-outs stand apart in the source and are kept apart here.

What was measured:
PsApaH (4) = PsApaH (4) (Pseudomonas sp. M30-35, UniProt A0A1Y0KY79); test: Acetyl-polyamine deacetylase assay; format: biochemical; settings: single samples (replicates)
PA1409 = PA1409 (Pseudomonas aeruginosa, UniProt Q9I3T5); test: Acetyl-polyamine deacetylase assay (positive control); format: biochemical; settings: for A1-A2: absorbance difference between the two time points; for A1-A2 / (A1-A2)-B: sheet Figure 2d; for (A1-A2)-B: absorbance difference minus mean blank
Sequence of PA1409 (Q9I3T5 whole entry): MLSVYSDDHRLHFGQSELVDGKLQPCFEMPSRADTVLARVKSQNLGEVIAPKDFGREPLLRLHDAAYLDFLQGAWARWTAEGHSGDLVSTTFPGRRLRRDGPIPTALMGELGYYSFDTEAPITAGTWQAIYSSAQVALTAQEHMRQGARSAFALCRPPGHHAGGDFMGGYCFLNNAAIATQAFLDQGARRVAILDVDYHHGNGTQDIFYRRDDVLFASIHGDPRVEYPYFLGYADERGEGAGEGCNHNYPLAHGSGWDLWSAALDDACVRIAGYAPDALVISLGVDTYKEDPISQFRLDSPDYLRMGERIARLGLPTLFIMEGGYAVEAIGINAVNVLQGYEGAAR

VsHdaH (1b) = format: biochemical, Vibrio sp.; settings: VsHdaH (1b) 3µM; single samples (replicates)
RsPrpH (1b) = test: Acetyl-polyamine deacetylase assay; format: biochemical, Rhizorhabdus sp.; settings: RsPrpH 3µM; single samples (replicates)
RwDmhA (1b) = RwDmhA (1b) (Rhizorhabdus wittichii, UniProt A0A067XIQ6); format: biochemical; settings: RwDmhA (1b) 3µM; single samples (replicates)
Sequence of RwDmhA (1b) (A0A067XIQ6 1-369): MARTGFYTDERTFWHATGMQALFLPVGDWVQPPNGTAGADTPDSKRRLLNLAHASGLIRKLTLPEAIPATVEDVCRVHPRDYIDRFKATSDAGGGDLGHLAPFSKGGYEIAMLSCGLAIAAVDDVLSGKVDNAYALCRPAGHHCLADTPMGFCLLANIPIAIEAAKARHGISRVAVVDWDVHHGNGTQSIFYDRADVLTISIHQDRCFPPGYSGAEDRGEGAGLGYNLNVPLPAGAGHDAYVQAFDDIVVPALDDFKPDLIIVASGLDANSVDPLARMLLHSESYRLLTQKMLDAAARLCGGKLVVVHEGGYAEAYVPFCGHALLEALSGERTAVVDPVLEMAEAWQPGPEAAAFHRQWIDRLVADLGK

KpHdaH (1b) = KpHdaH (1b) (Klebsiella pneumoniae, UniProt A0A377Z5F6); format: biochemical; settings: KpKDAC (1b); single samples (replicates)
Sequence of KpHdaH (1b) (A0A377Z5F6 1-371): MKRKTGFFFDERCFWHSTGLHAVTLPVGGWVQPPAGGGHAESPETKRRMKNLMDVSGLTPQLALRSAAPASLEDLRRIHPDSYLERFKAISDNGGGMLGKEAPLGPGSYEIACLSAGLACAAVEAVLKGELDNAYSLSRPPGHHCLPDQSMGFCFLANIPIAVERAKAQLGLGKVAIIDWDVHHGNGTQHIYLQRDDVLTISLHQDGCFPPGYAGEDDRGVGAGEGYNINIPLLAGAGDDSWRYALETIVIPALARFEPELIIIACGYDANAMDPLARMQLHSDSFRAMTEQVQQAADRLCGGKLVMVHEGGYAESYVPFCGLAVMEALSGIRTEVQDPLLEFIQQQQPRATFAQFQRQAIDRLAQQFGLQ

BsAcuC (2c) = biological target: T1, BsAcuC (2c) (Bacillus subtilis, UniProt P39067); test: Acetyl-polyamine deacetylase assay; format: biochemical; settings: BsAcuC (2c) 3µM; single samples (replicates)
T1 construct: made in house; host or cells: E. coli BL21 (DE3)
T1 sequence (P39067 1-387): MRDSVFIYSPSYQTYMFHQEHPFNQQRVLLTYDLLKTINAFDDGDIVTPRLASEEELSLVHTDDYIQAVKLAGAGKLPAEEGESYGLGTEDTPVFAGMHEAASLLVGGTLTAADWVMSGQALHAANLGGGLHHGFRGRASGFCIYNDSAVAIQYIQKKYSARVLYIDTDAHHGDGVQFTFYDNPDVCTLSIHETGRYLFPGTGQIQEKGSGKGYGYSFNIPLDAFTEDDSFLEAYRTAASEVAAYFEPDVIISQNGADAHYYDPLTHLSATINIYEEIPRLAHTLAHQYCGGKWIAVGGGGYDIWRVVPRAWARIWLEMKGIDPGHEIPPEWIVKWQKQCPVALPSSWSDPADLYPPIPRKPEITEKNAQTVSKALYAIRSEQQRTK

VcHdaH (5b) = test: Acetyl-polyamine deacetylase assay; format: biochemical, Vibrio cholerae; settings: VcHdaH (5b) 6µM; single samples (replicates)
LcApaH (3) = LcApaH (3) (Legionella cherrii, UniProt A0A0W0SGS1); format: biochemical
Sequence of LcApaH (3) (A0A0W0SGS1 1-425): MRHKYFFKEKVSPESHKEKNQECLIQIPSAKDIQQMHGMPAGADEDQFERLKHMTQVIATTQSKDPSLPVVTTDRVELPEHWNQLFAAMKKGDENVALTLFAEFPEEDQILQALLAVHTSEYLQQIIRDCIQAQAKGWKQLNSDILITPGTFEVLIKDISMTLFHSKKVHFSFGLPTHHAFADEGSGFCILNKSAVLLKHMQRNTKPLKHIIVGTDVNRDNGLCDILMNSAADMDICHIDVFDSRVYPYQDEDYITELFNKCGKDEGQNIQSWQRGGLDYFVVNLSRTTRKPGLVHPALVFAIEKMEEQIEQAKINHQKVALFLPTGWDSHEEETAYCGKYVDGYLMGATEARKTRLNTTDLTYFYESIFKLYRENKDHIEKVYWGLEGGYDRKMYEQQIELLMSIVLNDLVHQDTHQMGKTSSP

LpApaH (3) = LpApaH (3) (Legionella pneumophila, UniProt A0A2S6EWV0); format: biochemical
Sequence of LpApaH (3) (A0A2S6EWV0 1-426): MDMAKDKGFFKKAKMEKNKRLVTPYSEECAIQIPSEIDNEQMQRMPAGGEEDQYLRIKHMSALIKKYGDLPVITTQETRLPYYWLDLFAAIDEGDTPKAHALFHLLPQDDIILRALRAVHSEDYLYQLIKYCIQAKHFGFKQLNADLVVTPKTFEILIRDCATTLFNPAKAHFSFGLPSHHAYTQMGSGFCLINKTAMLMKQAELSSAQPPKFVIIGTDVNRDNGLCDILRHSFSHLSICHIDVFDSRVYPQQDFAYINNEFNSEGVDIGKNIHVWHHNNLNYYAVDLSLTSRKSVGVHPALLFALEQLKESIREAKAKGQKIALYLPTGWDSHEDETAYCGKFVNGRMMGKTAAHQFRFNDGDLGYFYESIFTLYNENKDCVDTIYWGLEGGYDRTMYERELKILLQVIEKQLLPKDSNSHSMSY

[1] = PA1409 (positive control enzyme), single samples (replicates)
[2] = LcApaH (3), single samples (replicates)

Sequence of PsApaH (4) (A0A1Y0KY79 1-342 limits assumed): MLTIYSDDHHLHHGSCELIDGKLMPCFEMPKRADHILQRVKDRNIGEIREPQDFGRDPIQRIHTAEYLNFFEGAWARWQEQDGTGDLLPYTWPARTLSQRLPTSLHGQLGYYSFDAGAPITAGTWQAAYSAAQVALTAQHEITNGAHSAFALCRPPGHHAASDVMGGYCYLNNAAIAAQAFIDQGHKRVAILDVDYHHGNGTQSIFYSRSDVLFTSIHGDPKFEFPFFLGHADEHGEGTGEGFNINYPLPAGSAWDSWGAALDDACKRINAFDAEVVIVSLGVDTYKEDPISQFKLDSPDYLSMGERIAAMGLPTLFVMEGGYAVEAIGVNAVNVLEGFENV

SMILES	acetate released, g/l (PsApaH (4))	acetate released, mM (PsApaH (4))	A1-A2 (PA1409)	(A1-A2)-B (PA1409)	acetate released, g/l (VsHdaH (1b))	acetate released, mM (VsHdaH (1b))	mM normalized to enzyme concentration (VsHdaH (1b))	acetate released, g/l (RsPrpH (1b))	acetate released, mM (RsPrpH (1b))	mM normalized to enzyme concentration (RsPrpH (1b))	acetate released, g/l (RwDmhA (1b))	acetate released, mM (RwDmhA (1b))	mM normalized to enzyme concentration (RwDmhA (1b))	acetate released, g/l (KpHdaH (1b))	acetate released, mM (KpHdaH (1b))	mM normalized to enzyme concentration (KpHdaH (1b))	acetate released, g/l (BsAcuC (2c))	acetate released, mM (BsAcuC (2c))	mM normalized to enzyme concentration (BsAcuC (2c))	acetate released, g/l (VcHdaH (5b))	further results
CC(=O)NCCCCCN [N1-acetyl-cadaverine]	0.08943 g/L and 0.09204 g/L and 0.09674 g/L	1.489 mM and 1.533 mM and 1.611 mM	0.543	0.5015	0.004047 g/L and 0.005091 g/L and 0.00483 g/L	0.06739 mM and 0.08478 mM and 0.08044 mM	0.02246 mM and 0.02826 mM and 0.02681 mM	0.02441 g/L and 0.02154 g/L and 0.02285 g/L	0.4065 mM and 0.3587 mM and 0.3804 mM	0.1355 mM and 0.1196 mM and 0.1268 mM	0.01449 g/L and 0.01841 g/L and 0.0252 g/L	0.2413 mM and 0.3065 mM and 0.4196 mM	0.08044 mM and 0.1022 mM and 0.1399 mM	0.005 g/L and 0.003 g/L and 0.002 g/L	0.0755 mM and 0.044 mM and 0.0346 mM	0.0151 mM and 0.0088 mM and 0.00692 mM	0.0001305 g/L and -0.0003916 g/L and -0.01371 g/L	0.002174 mM and -0.006522 mM and -0.2283 mM	0.0007246 mM and -0.002174 mM and -0.07609 mM	0.0009138 g/L and -0.0001305 g/L and 0.0003916 g/L	acetate released, g/l (PA1409; [1]): 0.1346 g/L; acetate released, mM (PA1409; [1]): 2.242 mM; mM normalized to enzyme concentration (PA1409; [1]): 22.4156 mM; acetate released, mM (VcHdaH (5b)): 0.01522 mM and -0.002174 mM and 0.006522 mM; mM normalized to enzyme concentration (VcHdaH (5b)): 0.002536 mM and -0.0003623 mM and 0.001087 mM; acetate released, g/l (LcApaH (3); [2]): 0.0133 g/L and 0.011 g/L; acetate released, mM (LcApaH (3); [2]): 0.22 mM and 0.18 mM; mM normalized to enzyme concentration (LcApaH (3); [2]): 0.22 mM and 0.18 mM; acetate released, g/l (LpApaH (3)): 0.0236 g/L and 0.04 g/L; acetate released, mM (LpApaH (3)): 0.39 mM and 0.70 mM; mM normalized to enzyme concentration (LpApaH (3)): 0.20 mM and 0.35 mM
CC(=O)NCCCCNCCCN [N8-acetyl-spermidine]	0.04138 g/L and 0.04164 g/L and 0.04191 g/L	0.6891 mM and 0.6935 mM and 0.6978 mM	0.581 and 0.564	0.5395 and 0.5225	0.002742 g/L and 0.003003 g/L	0.04565 mM and 0.05 mM	0.01522 mM and 0.01667 mM and 0.02536 mM	0.01005 g/L and 0.01371 g/L and 0.01762 g/L	0.1674 mM and 0.2283 mM and 0.2935 mM	0.0558 mM and 0.07609 mM and 0.09783 mM	0.005875 g/L and 0.0006527 g/L	0.09783 mM and 0.01087 mM	0.02246 mM and 0.03261 mM and 0.003623 mM	-0.006957 g/L and 0.01217 g/L and 0.008116 g/L	-0.1158 mM and 0.2027 mM and 0.1352 mM	-0.02317 mM and 0.04055 mM and 0.02703 mM	0.006919 g/L and 0.003003 g/L and 0.003525 g/L	0.1152 mM and 0.05 mM and 0.0587 mM	0.03841 mM and 0.01667 mM and 0.01957 mM	0.002219 g/L and 0.004047 g/L and 0.004569 g/L	acetate released, mM (VcHdaH (5b)): 0.03696 mM and 0.06739 mM and 0.07609 mM; mM normalized to enzyme concentration (VcHdaH (5b)): 0.006159 mM and 0.01123 mM and 0.01268 mM; acetate released, g/l (LcApaH (3)): 0.008058 g/L and 0.009115 g/L; acetate released, mM (LcApaH (3)): 0.1342 mM and 0.1518 mM; mM normalized to enzyme concentration (LcApaH (3)): 0.1342 mM and 0.1518 mM; acetate released, g/l (LpApaH (3)): 0.00515 g/L and 0.00674 g/L; acetate released, mM (LpApaH (3)): 0.09 mM and 0.11 mM; mM normalized to enzyme concentration (LpApaH (3)): 0.0429 mM and 0.0561 mM
